Consider 26 molecules from patent publication US12435092B2, “Substituted imidazo[1,2-A]quinazolines as inhibitors of PARG” (858 Therapeutics, Inc., priority 2022, dated 2025).

Some results are limits rather than exact numbers.

The target in this assay is T1, cellular PARG (Homo sapiens, UniProt Q86W56).
T1 construct: endogenous in cells; host or cells: HeLa
As to the kind of experiment: Nuclear PAR accumulation assay (immunofluorescence high-content imaging). Type of assay: cell-based. To be noted: HeLa cells, 1 hour compound treatment then MMS 50 μg/mL for an additional hour. The essentials:
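HeLa cells pretreated 1 h at 37 °C with compound, then 1 h with 50 μg/mL MMS (final), methanol-fixed and immunostained for PAR with DAPI nuclear counterstain. Nuclear PAR intensity and percent PAR-positive cells quantified by high-content imaging (≥1,000 cells/well). IC50 by four-parameter logistic fit, normalized to 0.1% DMSO and reference-compound controls.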

T1 sequence (Q86W56 whole entry): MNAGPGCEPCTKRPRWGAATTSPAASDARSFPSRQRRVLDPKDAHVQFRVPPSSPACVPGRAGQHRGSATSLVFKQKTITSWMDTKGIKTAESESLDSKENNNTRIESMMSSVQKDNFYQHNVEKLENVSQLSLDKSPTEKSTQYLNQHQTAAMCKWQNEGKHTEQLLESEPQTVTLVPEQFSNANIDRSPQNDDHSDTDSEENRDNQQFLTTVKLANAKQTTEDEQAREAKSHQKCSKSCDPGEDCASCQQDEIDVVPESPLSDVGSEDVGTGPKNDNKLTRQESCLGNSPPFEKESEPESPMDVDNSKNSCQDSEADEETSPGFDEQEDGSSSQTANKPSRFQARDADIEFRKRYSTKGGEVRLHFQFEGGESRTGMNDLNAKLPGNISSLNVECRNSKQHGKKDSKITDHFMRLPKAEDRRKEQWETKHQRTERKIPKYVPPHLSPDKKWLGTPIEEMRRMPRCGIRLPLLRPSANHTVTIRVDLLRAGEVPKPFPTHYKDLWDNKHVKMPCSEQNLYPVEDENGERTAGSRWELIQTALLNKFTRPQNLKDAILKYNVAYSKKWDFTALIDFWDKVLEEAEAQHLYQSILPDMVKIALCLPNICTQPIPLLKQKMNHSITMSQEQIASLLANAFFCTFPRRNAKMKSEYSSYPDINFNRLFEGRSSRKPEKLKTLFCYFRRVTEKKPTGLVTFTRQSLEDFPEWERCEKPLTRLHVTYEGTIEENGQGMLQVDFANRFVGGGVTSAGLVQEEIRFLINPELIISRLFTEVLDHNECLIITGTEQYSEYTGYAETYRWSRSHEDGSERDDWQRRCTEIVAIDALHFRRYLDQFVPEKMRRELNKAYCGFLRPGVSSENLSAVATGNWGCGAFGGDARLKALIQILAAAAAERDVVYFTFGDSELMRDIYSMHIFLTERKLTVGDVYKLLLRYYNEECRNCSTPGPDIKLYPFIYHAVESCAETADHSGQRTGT

Turning to `CC#C[C@@H]1CN=C2N(Cc3cnn(C)c3)C(=O)c3cc(S(=O)(=O)NC4(C)CC4)ccc3N21` [Example 59, (R)-4-((1-methyl-1H-pyrazol-4-yl)methyl)-N-(1-methylcyclopropyl)-5-oxo-1-(prop-1-yn-1-yl)-1,2,4,5-tetrahydroimidazo[1,2-a]quinazoline-7-sulfonamide], the IC50 was at most 100 nM.

On to `CC#C[C@H]1CN=C2N(Cc3cnn(C)c3)C(=O)c3cc(S(=O)(=O)NC4(C)CC4)ccc3N21` [Example 60, (S)-4-((1-methyl-1H-pyrazol-4-yl)methyl)-N-(1-methylcyclopropyl)-5-oxo-1-(prop-1-yn-1-yl)-1,2,4,5-tetrahydroimidazo[1,2-a]quinazoline-7-sulfonamide], for which the half-inhibitory concentration (IC50) fell in the range of 100 to 1000 nM.

On to `[2H]C([2H])(c1cnn(C)c1)N1C(=O)c2cc(S(=O)(=O)NC3(C)CC3)ccc2N2C1=NC[C@H]2C` [Example 61, (R)-1-methyl-4-((1-methyl-1H-pyrazol-4-yl)methyl-d2)-N-(1-methylcyclopropyl)-5-oxo-1,2,4,5-tetrahydroimidazo[1,2-a]quinazoline-7-sulfonamide], for which the 50% inhibitory concentration (IC50) is at most 100 nM.

In the case of `[2H]C([2H])(c1c(C)noc1C)N1C(=O)c2cc(S(=O)(=O)NC3(C)CC3)ccc2N2C1=NC[C@H]2C` [Example 62, (R)-4-((3,5-dimethylisoxazol-4-yl)methyl-d2)-1-methyl-N-(1-methylcyclopropyl)-5-oxo-1,2,4,5-tetrahydroimidazo[1,2-a]quinazoline-7-sulfonamide], the IC50 is at most 100 nM.

On to `[2H]C([2H])(c1cnc(C)s1)N1C(=O)c2cc(S(=O)(=O)NC3(C)CC3)ccc2N2C1=NC[C@H]2C` [Example 63, (R)-1-methyl-N-(1-methylcyclopropyl)-4-((2-methylthiazol-5-yl)methyl-d2)-5-oxo-1,2,4,5-tetrahydroimidazo[1,2-a]quinazoline-7-sulfonamide], for which the IC50 was at most 100 nM.

In the case of `Cn1cc(CN2C(=O)c3cc(S(=O)(=O)NC4(C)CC4)ccc3N3CC(C)(C)N=C23)cn1` [Example 64, 2,2-dimethyl-4-((1-methyl-1H-pyrazol-4-yl)methyl)-N-(1-methylcyclopropyl)-5-oxo-1,2,4,5-tetrahydroimidazo[1,2-a]quinazoline-7-sulfonamide], the IC50 is at most 100 nM.

For the molecule `Cn1cc(CN2C(=O)c3cc(S(=O)(=O)NC4(C)CC4)ccc3N3C2=NC[C@H]3C(F)(F)F)cn1` [Example 65, (S)-1-trifluoromethyl-4-((1-methyl-1H-pyrazol-4-yl)methyl)-N-(1-methylcyclopropyl)-5-oxo-1,2,4,5-tetrahydroimidazo[1,2-a]quinazoline-7-sulfonamide], the 50% inhibitory concentration (IC50) was at most 100 nM.

Consider `C[C@@H]1CN=C2N(Cc3cnn(CC#N)c3)C(=O)c3cc(S(=O)(=O)NC4(C)CC4)ccc3N21` [Example 66, (R)-1-methyl-4-((1-cyanomethyl-1H-pyrazol-4-yl)methyl)-N-(1-methylcyclopropyl)-5-oxo-1,2,4,5-tetrahydroimidazo[1,2-a]quinazoline-7-sulfonamide], for which the IC50 is at most 100 nM.

`Cc1noc(C)c1CN1C(=O)c2cc(S(=O)(=O)NC3(C)CC3)ccc2N2C1=NC[C@H]2C(C)C` [Example 67, (R)-4-((3,5-dimethylisoxazol-4-yl)methyl)-1-isopropyl-N-(1-methylcyclopropyl)-5-oxo-1,2,4,5-tetrahydroimidazo[1,2-a]quinazoline-7-sulfonamide] registered a concentration for half-maximal inhibition (IC50) of at most 100 nM.

The molecule `Cc1noc(C)c1CN1C(=O)c2cc(S(=O)(=O)NC3(C)CC3)ccc2N2C1=NC[C@@H]2C(C)C` [Example 68, (S)-4-((3,5-dimethylisoxazol-4-yl)methyl)-1-isopropyl-N-(1-methylcyclopropyl)-5-oxo-1,2,4,5-tetrahydroimidazo[1,2-a]quinazoline-7-sulfonamide] had an IC50 of 1000 to 10000 nM.

As for `Cc1noc(C)c1CN1C(=O)c2cc(S(=O)(=O)NC3(C)CC3)ccc2N2C1=NC[C@H]2C1CC1` [Example 69, (R)-1-cyclopropyl-4-((3,5-dimethylisoxazol-4-yl)methyl)-N-(1-methylcyclopropyl)-5-oxo-1,2,4,5-tetrahydroimidazo[1,2-a]quinazoline-7-sulfonamide], the IC50 was at most 100 nM.

Take `Cc1noc(C)c1CN1C(=O)c2cc(S(=O)(=O)NC3(C)CC3)ccc2N2C1=NC[C@@H]2C1CC1` [Example 70, (S)-1-cyclopropyl-4-((3,5-dimethylisoxazol-4-yl)methyl)-N-(1-methylcyclopropyl)-5-oxo-1,2,4,5-tetrahydroimidazo[1,2-a]quinazoline-7-sulfonamide]: the half-inhibitory concentration (IC50) was 100 to 1000 nM.

`C#C[C@@H]1CN=C2N(Cc3c(C)noc3C)C(=O)c3cc(S(=O)(=O)NC4(C)CC4)ccc3N21` [Example 71, (R)-4-((3,5-dimethylisoxazol-4-yl)methyl)-1-ethynyl-N-(1-methylcyclopropyl)-5-oxo-1,2,4,5-tetrahydroimidazo[1,2-a]quinazoline-7-sulfonamide] had a half-maximal inhibitory concentration (IC50) of at most 100 nM.

The molecule `C#C[C@H]1CN=C2N(Cc3c(C)noc3C)C(=O)c3cc(S(=O)(=O)NC4(C)CC4)ccc3N21` [Example 72, (S)-4-((3,5-dimethylisoxazol-4-yl)methyl)-1-ethynyl-N-(1-methylcyclopropyl)-5-oxo-1,2,4,5-tetrahydroimidazo[1,2-a]quinazoline-7-sulfonamide] showed a half-inhibitory concentration (IC50) of at most 100 nM.

Regarding `Cc1nc(C)c(CN2C(=O)c3cc(S(=O)(=O)NC4(C)CC4)ccc3N3C2=NC[C@H]3C)s1` [Example 73, (R)-4-((2,4-dimethylthiazol-5-yl)methyl)-1-methyl-N-(1-methylcyclopropyl)-5-oxo-1,2,4,5-tetrahydroimidazo[1,2-a]quinazoline-7-sulfonamide], the 50% inhibitory concentration (IC50) is at most 100 nM.

As to `C[C@@H]1CN=C2N(Cc3cnn(C)c3)C(=O)c3cc(S(=O)(=O)NC4(C)CC4)c(F)cc3N21` [Example 74, (R)-8-fluoro-1-methyl-4-((1-methyl-1H-pyrazol-4-yl)methyl)-N-(1-methylcyclopropyl)-5-oxo-1,2,4,5-tetrahydroimidazo[1,2-a]quinazoline-7-sulfonamide], the IC50 is at most 100 nM.

In turn, `C[C@H]1CCN=C2N(Cc3cnn(C)c3)C(=O)c3cc(S(=O)(=O)NC4(C)CC4)ccc3N21` [Example 75, (S)-1-methyl-5-((1-methyl-1H-pyrazol-4-yl)methyl)-N-(1-methylcyclopropyl)-6-oxo-2,3,5,6-tetrahydro-1H-pyrimido[1,2-a]quinazoline-8-sulfonamide] showed a concentration for half-maximal inhibition (IC50) of at most 100 nM.

Turning to `C[C@@H]1CCN=C2N(Cc3cnn(C)c3)C(=O)c3cc(S(=O)(=O)NC4(C)CC4)ccc3N21` [Example 76, (R)-1-methyl-5-((1-methyl-1H-pyrazol-4-yl)methyl)-N-(1-methylcyclopropyl)-6-oxo-2,3,5,6-tetrahydro-1H-pyrimido[1,2-a]quinazoline-8-sulfonamide], the IC50 was at most 100 nM.

`COC[C@@H]1CN=C2N(Cc3cnn(C)c3)C(=O)c3cc(S(=O)(=O)NC4(C)CC4)ccc3N21` [Example 77, (S)-1-(methoxymethyl)-4-((1-methyl-1H-pyrazol-4-yl)methyl)-N-(1-methylcyclopropyl)-5-oxo-1,2,4,5-tetrahydroimidazo[1,2-a]quinazoline-7-sulfonamide] came in with an IC50 of at most 100 nM.

`COC[C@H]1CN=C2N(Cc3cnn(C)c3)C(=O)c3cc(S(=O)(=O)NC4(C)CC4)ccc3N21` [Example 78, (R)-1-(methoxymethyl)-4-((1-methyl-1H-pyrazol-4-yl)methyl)-N-(1-methylcyclopropyl)-5-oxo-1,2,4,5-tetrahydroimidazo[1,2-a]quinazoline-7-sulfonamide]: the concentration for half-maximal inhibition (IC50) was in the range of 100 to 1000 nM.

`Cn1cc(CN2C(=O)c3cc(S(=O)(=O)NC4(C)CC4)ccc3N3C2=N[C@H]2CCC[C@H]23)cn1` [Example 79, (7aS,10aR)-6-((1-methyl-1H-pyrazol-4-yl)methyl)-N-(1-methylcyclopropyl)-5-oxo-6,7a,8,9,10,10a-hexahydro-5H-cyclopenta[4,5]imidazo[1,2-a]quinazoline-3-sulfonamide] had an IC50 of at most 100 nM.

Molecule `Cc1nn(C)cc1CN1C(=O)c2cc(S(=O)(=O)NC3(C)CC3)ccc2N2C1=NC[C@H]2C` [Example 80, (R)-4-((1,3-dimethyl-1H-pyrazol-4-yl)methyl)-1-methyl-N-(1-methylcyclopropyl)-5-oxo-1,2,4,5-tetrahydroimidazo[1,2-a]quinazoline-7-sulfonamide] had an IC50 of at most 100 nM.

In the case of `Cc1c(CN2C(=O)c3cc(S(=O)(=O)NC4(C)CC4)ccc3N3C2=NC[C@H]3C)cnn1C` [Example 81, (R)-4-((1,5-dimethyl-1H-pyrazol-4-yl)methyl)-1-methyl-N-(1-methylcyclopropyl)-5-oxo-1,2,4,5-tetrahydroimidazo[1,2-a]quinazoline-7-sulfonamide], the IC50 is at most 100 nM.

On to `Cc1nc(C)c([C@@H]2CN=C3N(CC4CC4)C(=O)c4cc(S(=O)(=O)NC5(C)CC5)ccc4N32)s1` [Example 82, (S)-4-(cyclopropylmethyl)-1-(2,4-dimethylthiazol-5-yl)-N-(1-methylcyclopropyl)-5-oxo-1,2,4,5-tetrahydroimidazo[1,2-a]quinazoline-7-sulfonamide], for which the IC50 fell in the range of 100 to 1000 nM.

`Cn1cc(CN2C(=O)c3cc(S(=O)(=O)NC4(C)CC4)ccc3N3C2=NC[C@H]3C#CC2CC2)cn1` [Example 83, (R)-1-(cyclopropylethynyl)-4-((1-methyl-1H-pyrazol-4-yl)methyl)-N-(1-methylcyclopropyl)-5-oxo-1,2,4,5-tetrahydroimidazo[1,2-a]quinazoline-7-sulfonamide] registered an IC50 of at most 100 nM.

`Cn1cc(CN2C(=O)c3cc(S(=O)(=O)NC4(C)CC4)ccc3N3C2=NC[C@@H]3C#CC2CC2)cn1` [Example 84, (S)-1-(cyclopropylethynyl)-4-((1-methyl-1H-pyrazol-4-yl)methyl)-N-(1-methylcyclopropyl)-5-oxo-1,2,4,5-tetrahydroimidazo[1,2-a]quinazoline-7-sulfonamide] came in with a half-inhibitory concentration (IC50) of 1000 to 10000 nM.
